Laboratory results published in patent US20060069132A1, “Azolecarboxamide herbicides” (priority 2004, published 2006).

Experiments:
Surinam grass = assay: Test B pre-/postemergence herbicide test; type: in vivo, Urochloa decumbens; conditions: for Plant response rating (0 to 100 scale), Surinam Grass: 0 is no effect, 100 is complete control, preemergence; for Surinam Grass plant response rating: scale 0 (no effect) to 100 (complete control)
Summary of the method: (§1)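 Formulation: non-phytotoxic solvent mix with surfactant. Timing: preemergence on seed and postemergence on 2–18 cm plants, applied concurrently. Readout after 13–15 d greenhouse: visual 0–100 control rating against controls.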

ducksalad = assay: Test B flooded paddy test; type: in vivo, Heteranthera limosa; conditions: 1000 g ai/ha, scale 0 to 100 (0 no effect, 100 complete control)
Summary of the method: (§2)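 Visual control ratings, 0–100 versus untreated controls, taken after 13 to 15 days in the greenhouse. Blackgrass received a postemergence spray at the 1- to 4-leaf stage (2–18 cm); ducksalad, umbrella sedge and barnyardgrass were flooded-paddy treated at 2 leaves.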

barnyardgrass [1] = assay: Test B flooded paddy test; type: in vivo, Echinochloa crus-galli; conditions: 1000 g ai/ha, scale 0 to 100 (0 no effect, 100 complete control)
Summary of the method: as §2

wheat = assay: Test B postemergence herbicide test; type: in vivo, Triticum aestivum; parameters: key to Wheat plant response rating: 0 = no effect, 100 = complete control
Summary of the method: (§3)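 Visual ratings, 0 (no effect) to 100 (complete control), made versus controls after 13–15 d greenhouse. Paddy plants treated at 2-leaf stage; postemergence plants at 1- to 4-leaf stage, 2–18 cm tall.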

morningglory = assay: Test B pre-/postemergence herbicide test; type: in vivo, Ipomoea coccinea; conditions: for Plant response rating (0 to 100 scale), Morningglory: 0 is no effect, 100 is complete control, preemergence; for Morningglory plant response rating: scale 0 (no effect) to 100 (complete control)
Summary of the method: (§4)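 Response was scored visually 13 to 15 days after treatment against untreated greenhouse controls, 0 meaning no effect and 100 complete control. Formulations (solvent mixture plus surfactant) went onto soil after planting, onto foliage of 1- to 4-leaf plants, and onto 2-leaf plants in a flooded paddy set including rice and barnyardgrass.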

barnyardgrass [2] = assay: Test B pre-/postemergence herbicide test; type: in vivo, Echinochloa crus-galli; conditions: for Plant response rating (0 to 100 scale), Barnyardgrass: 0 is no effect, 100 is complete control, preemergence; for Barnyardgrass plant response rating: scale 0 (no effect) to 100 (complete control)
Summary of the method: as §4

corn = assay: Test B pre-/postemergence herbicide test; type: in vivo, Zea mays; conditions: for Plant response rating (0 to 100 scale), Corn: 0 is no effect, 100 is complete control, preemergence; for Corn plant response rating: scale 0 (no effect) to 100 (complete control)
Summary of the method: as §1

wild oat = assay: Test B postemergence herbicide test; type: in vivo, Avena fatua; conditions: scale 0 (no effect) to 100 (complete control)
Summary of the method: as §3

giant foxtail = assay: Test B pre-/postemergence herbicide test; type: in vivo, Setaria faberi; conditions: for Plant response rating (0 to 100 scale), Foxtail, Giant: 0 is no effect, 100 is complete control, preemergence; for Foxtail, Giant plant response rating: scale 0 (no effect) to 100 (complete control)
Summary of the method: as §1

rice = assay: Test B flooded paddy test; type: in vivo, Oryza sativa; conditions: 1000 g ai/ha, scale 0 to 100 (0 no effect, 100 complete control)
Summary of the method: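 Scale 0–100: zero equals no visible effect, 100 complete control, judged by eye relative to controls. Timing: 13 to 15 days in greenhouse post-treatment. Growth stage at spraying: two leaves (paddy) or one to four leaves, 2–18 cm (postemergence).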

blackgrass = assay: Test B postemergence herbicide test; type: in vivo, Alopecurus myosuroides; conditions: scale 0 (no effect) to 100 (complete control)
Summary of the method: as §2

large crabgrass = assay: Test B pre-/postemergence herbicide test; type: in vivo, Digitaria sanguinalis; conditions: for Plant response rating (0 to 100 scale), Crabgrass, Large: 0 is no effect, 100 is complete control, preemergence; for Crabgrass, Large plant response rating: scale 0 (no effect) to 100 (complete control)
Summary of the method: as §1

pigweed = assay: Test B pre-/postemergence herbicide test; type: in vivo, Amaranthus retroflexus; conditions: for Plant response rating (0 to 100 scale), Pigweed: 0 is no effect, 100 is complete control, preemergence; for Pigweed plant response rating: scale 0 (no effect) to 100 (complete control)
Summary of the method: as §1

cocklebur = assay: Test B pre-/postemergence herbicide test; type: in vivo, Xanthium strumarium; conditions: for Plant response rating (0 to 100 scale), Cocklebur: 0 is no effect, 100 is complete control, preemergence; for Cocklebur plant response rating: scale 0 (no effect) to 100 (complete control)
Summary of the method: as §4

lambsquarters = assay: Test B pre-/postemergence herbicide test; type: in vivo, Chenopodium album; conditions: for Plant response rating (0 to 100 scale), Lambsquarters: 0 is no effect, 100 is complete control, preemergence; for Lambsquarters plant response rating: scale 0 (no effect) to 100 (complete control)
Summary of the method: as §1

[3] = tested on: small flower umbrella sedge; assay: Test B flooded paddy test; type: in vivo, Cyperus difformis; conditions: 1000 g ai/ha, scale 0 to 100 (0 no effect, 100 complete control)
Summary of the method: as §2

velvetleaf = assay: Test B pre-/postemergence herbicide test; type: in vivo, Abutilon theophrasti; conditions: for Plant response rating (0 to 100 scale), Velvetleaf: 0 is no effect, 100 is complete control, preemergence; for Velvetleaf plant response rating: scale 0 (no effect) to 100 (complete control)
Summary of the method: as §1

[4] = 125 g ai/ha, visual rating, postemergence
[5] = 125 g ai/ha, visual rating, scale 0 (no effect) to 100 (complete control), postemergence
[6] = 500 g ai/ha, scale 0 to 100, 0 no effect, 100 complete control, preemergence
[7] = Postemergence, 500 g ai/ha, scale 0 (no effect) to 100 (complete control)

C=CCN(CC=C)C(=O)c1cccc(NC(=O)c2nn(C(C)C)nc2CC)c1 [Compound 390]
Plant response rating (0 to 100 scale), Surinam Grass (Surinam grass; 125 g ai/ha): 0 | Surinam Grass plant response rating (Surinam grass; [4]): 0 | Surinam Grass plant response rating (Surinam grass; Postemergence, 500 g ai/ha): 10 | Ducksalad plant response rating (ducksalad): 40 | Barnyardgrass plant response rating (barnyardgrass [1]): 0 | Wheat plant response rating (wheat; [5]): 0 | Wheat plant response rating (wheat; [6]): 10 | Wheat plant response rating (wheat; [7]): 0 | Plant response rating (0 to 100 scale), Morningglory (morningglory; 125 g ai/ha): 0 | Morningglory plant response rating (morningglory; [4]): 0 | Morningglory plant response rating (morningglory; Postemergence, 500 g ai/ha): 40 | Plant response rating (0 to 100 scale), Barnyardgrass (barnyardgrass [2]; 125 g ai/ha): 0 | Barnyardgrass plant response rating (barnyardgrass [2]; [4]): 0 | Barnyardgrass plant response rating (barnyardgrass [2]; Postemergence, 500 g ai/ha): 10 | Plant response rating (0 to 100 scale), Corn (corn; 125 g ai/ha): 0 | Corn plant response rating (corn; [4]): 0 | Corn plant response rating (corn; Postemergence, 500 g ai/ha): 20 | Oat, Wild plant response rating (wild oat; [4]): 0 | Oat, Wild plant response rating (wild oat; Postemergence, 500 g ai/ha): 10 | Plant response rating (0 to 100 scale), Foxtail, Giant (giant foxtail; 125 g ai/ha): 0 | Foxtail, Giant plant response rating (giant foxtail; [4]): 10 | Foxtail, Giant plant response rating (giant foxtail; Postemergence, 500 g ai/ha): 30 | Rice plant response rating (rice): 30 | Blackgrass plant response rating (blackgrass; [4]): 0 | Blackgrass plant response rating (blackgrass; Postemergence, 500 g ai/ha): 10 | Plant response rating (0 to 100 scale), Crabgrass, Large (large crabgrass; 125 g ai/ha): 10 | Crabgrass, Large plant response rating (large crabgrass; [4]): 10 | Crabgrass, Large plant response rating (large crabgrass; Postemergence, 500 g ai/ha): 20 | Plant response rating (0 to 100 scale), Pigweed (pigweed; 125 g ai/ha): 0 | Pigweed plant response rating (pigweed; [4]): 50 | Pigweed plant response rating (pigweed; Postemergence, 500 g ai/ha): 60 | Plant response rating (0 to 100 scale), Cocklebur (cocklebur; 125 g ai/ha): 0 | Cocklebur plant response rating (cocklebur; [4]): 20 | Cocklebur plant response rating (cocklebur; Postemergence, 500 g ai/ha): 20 | Plant response rating (0 to 100 scale), Lambsquarters (lambsquarters; 125 g ai/ha): 30 | Lambsquarters plant response rating (lambsquarters; [4]): 60 | Lambsquarters plant response rating (lambsquarters; Postemergence, 500 g ai/ha): 60 | Sedge, Umbrella plant response rating [3]: 60 | Plant response rating (0 to 100 scale), Velvetleaf (velvetleaf; 125 g ai/ha): 0 | Velvetleaf plant response rating (velvetleaf; [4]): 0 | Velvetleaf plant response rating (velvetleaf; Postemergence, 500 g ai/ha): 20

COC(=O)c1ccc(F)c(NC(=O)c2nn(C(C)C)nc2C)c1 [Compound 398]
Plant response rating (0 to 100 scale), Surinam Grass (Surinam grass; 125 g ai/ha): 0 | Surinam Grass plant response rating (Surinam grass; [4]): 10 | Surinam Grass plant response rating (Surinam grass; Postemergence, 500 g ai/ha): 10 | Ducksalad plant response rating (ducksalad): 0 | Barnyardgrass plant response rating (barnyardgrass [1]): 0 | Wheat plant response rating (wheat; [5]): 0 | Wheat plant response rating (wheat; [6]): 0 | Wheat plant response rating (wheat; [7]): 10 | Plant response rating (0 to 100 scale), Morningglory (morningglory; 125 g ai/ha): 0 | Morningglory plant response rating (morningglory; [4]): 0 | Morningglory plant response rating (morningglory; Postemergence, 500 g ai/ha): 20 | Plant response rating (0 to 100 scale), Barnyardgrass (barnyardgrass [2]; 125 g ai/ha): 0 | Barnyardgrass plant response rating (barnyardgrass [2]; [4]): 0 | Barnyardgrass plant response rating (barnyardgrass [2]; Postemergence, 500 g ai/ha): 0 | Plant response rating (0 to 100 scale), Corn (corn; 125 g ai/ha): 0 | Corn plant response rating (corn; [4]): 0 | Corn plant response rating (corn; Postemergence, 500 g ai/ha): 20 | Oat, Wild plant response rating (wild oat; [4]): 0 | Oat, Wild plant response rating (wild oat; Postemergence, 500 g ai/ha): 0 | Plant response rating (0 to 100 scale), Foxtail, Giant (giant foxtail; 125 g ai/ha): 0 | Foxtail, Giant plant response rating (giant foxtail; [4]): 20 | Foxtail, Giant plant response rating (giant foxtail; Postemergence, 500 g ai/ha): 30 | Rice plant response rating (rice): 10 | Blackgrass plant response rating (blackgrass; [4]): 0 | Blackgrass plant response rating (blackgrass; Postemergence, 500 g ai/ha): 10 | Plant response rating (0 to 100 scale), Crabgrass, Large (large crabgrass; 125 g ai/ha): 0 | Crabgrass, Large plant response rating (large crabgrass; [4]): 0 | Crabgrass, Large plant response rating (large crabgrass; Postemergence, 500 g ai/ha): 10 | Plant response rating (0 to 100 scale), Pigweed (pigweed; 125 g ai/ha): 0 | Pigweed plant response rating (pigweed; [4]): 0 | Pigweed plant response rating (pigweed; Postemergence, 500 g ai/ha): 10 | Plant response rating (0 to 100 scale), Cocklebur (cocklebur; 125 g ai/ha): 0 | Cocklebur plant response rating (cocklebur; [4]): 0 | Cocklebur plant response rating (cocklebur; Postemergence, 500 g ai/ha): 10 | Plant response rating (0 to 100 scale), Lambsquarters (lambsquarters; 125 g ai/ha): 0 | Lambsquarters plant response rating (lambsquarters; [4]): 10 | Lambsquarters plant response rating (lambsquarters; Postemergence, 500 g ai/ha): 10 | Sedge, Umbrella plant response rating [3]: 80 | Plant response rating (0 to 100 scale), Velvetleaf (velvetleaf; 125 g ai/ha): 0 | Velvetleaf plant response rating (velvetleaf; [4]): 20 | Velvetleaf plant response rating (velvetleaf; Postemergence, 500 g ai/ha): 60
